ChEMBL document CHEMBL1141648, “Aurora kinase A inhibitors: identification, SAR exploration and molecular modeling of 6,7-dihydro-4H-pyrazolo-[1,5-a]pyrrolo[3,4-d]pyrimidine-5,8-dione scaffold” (Bioorg Med Chem Lett, 2008)

Biological target: T1, Aurora kinase A (Homo sapiens) (UniProt O14965)
T1 sequence (whole entry): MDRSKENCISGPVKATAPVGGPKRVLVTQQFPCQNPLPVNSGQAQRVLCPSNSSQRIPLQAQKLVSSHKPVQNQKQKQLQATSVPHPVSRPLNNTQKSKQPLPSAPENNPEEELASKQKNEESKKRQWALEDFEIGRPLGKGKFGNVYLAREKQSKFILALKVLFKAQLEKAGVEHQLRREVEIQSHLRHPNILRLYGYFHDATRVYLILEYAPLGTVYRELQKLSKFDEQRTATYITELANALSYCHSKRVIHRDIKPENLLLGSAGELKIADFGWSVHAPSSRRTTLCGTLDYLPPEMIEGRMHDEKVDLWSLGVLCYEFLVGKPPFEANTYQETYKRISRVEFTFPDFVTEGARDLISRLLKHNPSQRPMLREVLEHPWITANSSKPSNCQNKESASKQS
Assay: Inhibition of Aurora A kinase at 10 uM

Row | SMILES | inhibition [%]
1 | COc1cc(CN2Cc3c([nH]c4cc(-c5ccco5)nn4c3=O)C2=O)cc(OC)c1 | 10.1
2 | O=C1c2nc3cc(-c4ccccc4)nn3c(O)c2CN1Cc1ccccc1 | 25.9
3 | CC(=O)Nc1cccc(CN2Cc3c([nH]c4cc(-c5ccco5)nn4c3=O)C2=O)c1 | 35.8
4 | O=C1c2[nH]c3cc(-c4ccco4)nn3c(=O)c2CN1c1ccccc1 | 7.6
5 | Cn1c2c(c(=O)n3nc(-c4ccco4)cc13)CN(Cc1ccccc1)C2=O | 2.3
6 | O=C1c2[nH]c3cc(-c4ccco4)nn3c(=O)c2CN1CCN1CCOCC1 | 0.9
7 | O=C1c2[nH]c3cc(-c4ccco4)nn3c(=O)c2CN1Cc1cccc2ccccc12 | 30.4
8 | O=C1c2c(c(=O)n3nc(-c4ccco4)cc3n2CCN2CCOCC2)CN1Cc1ccccc1 | 0
9 | O=C1c2nc3cc(-c4ccco4)nn3c(O)c2CN1Cc1ccccc1 | 35.6
10 | O=C1c2[nH]c3cc(-c4ccco4)nn3c(=O)c2CN1Cc1ccc2c(c1)OCO2 | 12.3
11 | COc1ccccc1CN1Cc2c([nH]c3cc(-c4ccco4)nn3c2=O)C1=O | 51.6
12 | COc1ccc(CN2Cc3c([nH]c4cc(-c5ccco5)nn4c3=O)C2=O)cc1OC | 7.8
13 | COc1ccc(CN2Cc3c([nH]c4cc(-c5ccco5)nn4c3=O)C2=O)cc1 | 42.4

Results, then the molecule that gave them:

Row | inhibition [%] | SMILES
14 | 1.6 | O=C1c2[nH]c3ccnn3c(=O)c2CN1Cc1ccccc1
15 | 24 | O=C1c2[nH]c3cc(-c4ccco4)nn3c(=O)c2CN1Cc1ccc(F)cc1
16 | 29.4 | O=C1c2[nH]c3cc(-c4cccs4)nn3c(=O)c2CN1Cc1ccccc1
17 | 1.8 | Cc1cc2[nH]c3c(c(=O)n2n1)CN(Cc1ccccc1)C3=O
18 | 29.3 | COc1cccc(CN2Cc3c([nH]c4cc(-c5ccco5)nn4c3=O)C2=O)c1
19 | 19.6 | O=C1c2[nH]c3cc(-c4ccco4)nn3c(=O)c2CN1CCc1ccccc1
20 | 16.4 | O=C1c2[nH]c3cc(-c4ccco4)nn3c(=O)c2CN1CCCc1ccccc1
21 | 21.6 | O=C1c2[nH]c3cc(-c4ccco4)nn3c(=O)c2CN1Cc1ccccn1

Biological target: T2, Aurora kinase A (Homo sapiens, UniProt O14965)
T2 sequence (O14965 whole entry): T1 sequence (whole entry)
Assay: Inhibition of Aurora A kinase

Row | IC50 [µM] | SMILES
22 | 18.3 | CC(=O)Nc1cccc(CN2Cc3c([nH]c4cc(-c5ccco5)nn4c3=O)C2=O)c1
23 | 15.2 | COc1cccc(CN2Cc3c([nH]c4cc(-c5ccco5)nn4c3=O)C2=O)c1
24 | 15.1 | O=C1c2nc3cc(-c4ccco4)nn3c(O)c2CN1Cc1ccccc1
25 | 5.6 | COc1ccccc1CN1Cc2c([nH]c3cc(-c4ccco4)nn3c2=O)C1=O
26 | 8 | COc1ccc(CN2Cc3c([nH]c4cc(-c5ccco5)nn4c3=O)C2=O)cc1

Biological target: T3, Aurora kinase C (Homo sapiens, UniProt Q9UQB9)
T3 sequence (Q9UQB9 whole entry): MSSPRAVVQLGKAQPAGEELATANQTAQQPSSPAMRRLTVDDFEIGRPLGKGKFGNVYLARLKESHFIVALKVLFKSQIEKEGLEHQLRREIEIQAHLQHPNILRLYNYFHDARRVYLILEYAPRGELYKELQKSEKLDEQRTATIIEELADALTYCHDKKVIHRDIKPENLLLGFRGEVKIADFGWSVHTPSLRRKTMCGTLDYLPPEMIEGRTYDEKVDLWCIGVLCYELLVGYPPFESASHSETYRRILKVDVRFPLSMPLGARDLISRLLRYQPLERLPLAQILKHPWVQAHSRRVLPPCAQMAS
Assay: Inhibition of Aurora C kinase

Row | SMILES | Ki [µM]
27 | CO[C@@H](C(=O)N1Cc2n[nH]c(NC(=O)c3ccc(N4CCN(C)CC4)cc3)c2C1)c1ccccc1 [DANUSERTIB] | 0.061

Biological target: T1, Aurora kinase A (Homo sapiens)
Assay: Inhibition of Aurora A kinase at 50 uM

Row | SMILES | inhibition [%]
28 | COc1cc(CN2Cc3c([nH]c4cc(-c5ccco5)nn4c3=O)C2=O)cc(OC)c1 | 75.3
29 | O=C1c2nc3cc(-c4ccccc4)nn3c(O)c2CN1Cc1ccccc1 | 47.2
30 | CC(=O)Nc1cccc(CN2Cc3c([nH]c4cc(-c5ccco5)nn4c3=O)C2=O)c1 | 87.8
31 | O=C1c2[nH]c3cc(-c4ccco4)nn3c(=O)c2CN1c1ccccc1 | 73.7
32 | Cn1c2c(c(=O)n3nc(-c4ccco4)cc13)CN(Cc1ccccc1)C2=O | 3.4
33 | O=C1c2[nH]c3cc(-c4ccco4)nn3c(=O)c2CN1CCN1CCOCC1 | 10.7
34 | O=C1c2[nH]c3cc(-c4ccco4)nn3c(=O)c2CN1Cc1cccc2ccccc12 | 79.9
35 | O=C1c2c(c(=O)n3nc(-c4ccco4)cc3n2CCN2CCOCC2)CN1Cc1ccccc1 | 1.1
36 | O=C1c2nc3cc(-c4ccco4)nn3c(O)c2CN1Cc1ccccc1 | 90.2
37 | O=C1c2[nH]c3cc(-c4ccco4)nn3c(=O)c2CN1Cc1ccc2c(c1)OCO2 | 75.2
38 | COc1ccccc1CN1Cc2c([nH]c3cc(-c4ccco4)nn3c2=O)C1=O | 95.1
39 | COc1ccc(CN2Cc3c([nH]c4cc(-c5ccco5)nn4c3=O)C2=O)cc1OC | 70.8
40 | COc1ccc(CN2Cc3c([nH]c4cc(-c5ccco5)nn4c3=O)C2=O)cc1 | 88.2

Continued, values first:

Row | inhibition [%] | SMILES
41 | 14.5 | O=C1c2[nH]c3ccnn3c(=O)c2CN1Cc1ccccc1
42 | 89.8 | O=C1c2[nH]c3cc(-c4ccco4)nn3c(=O)c2CN1Cc1ccc(F)cc1
43 | 72.3 | O=C1c2[nH]c3cc(-c4cccs4)nn3c(=O)c2CN1Cc1ccccc1
44 | 20.8 | Cc1cc2[nH]c3c(c(=O)n2n1)CN(Cc1ccccc1)C3=O
45 | 90 | COc1cccc(CN2Cc3c([nH]c4cc(-c5ccco5)nn4c3=O)C2=O)c1
46 | 83.9 | O=C1c2[nH]c3cc(-c4ccco4)nn3c(=O)c2CN1CCc1ccccc1
47 | 84.4 | O=C1c2[nH]c3cc(-c4ccco4)nn3c(=O)c2CN1CCCc1ccccc1
48 | 79.2 | O=C1c2[nH]c3cc(-c4ccco4)nn3c(=O)c2CN1Cc1ccccn1
